According to US6156700A, “3-(1,2-Benzisothiazol- and isoxazol-5-yl)-2,4(1H,3H)-pyrimidinedione or thione and 3-(1,2-benzisothiazol- and isoxazol-5-yl)-4(3H)-pyrimidinone or thione herbicidal agents” (American Cyanmid Company, priority 1998, dated 2000):

Legend:
[1] = system: Foxtail, Green, Setaria viridis; assay: Postemergence herbicidal evaluation, SETVI; assay type: in vivo, (L.) Beau
Method in brief: (§1)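 Scoring four to five weeks after treatment used a 0–9 scale based on plant appearance versus control. Treatment: 40 psi spray of about 0.0157–0.500 kg/ha onto two-week seedlings, compound dispersed in acetone/water 50/50 with 0.5% TWEEN 20.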

[2] = system: Rice, Tebonnet, Oryza sativa; assay: Postemergence herbicidal evaluation, ORYSAT; assay type: in vivo, (L.) Tebonnet
Method in brief: as §1

Galium, Galium aparine [3] = assay: Preemergence herbicidal evaluation, GALAP; assay type: in vivo; details: 0.2500 kg/ha
Method in brief: (§2)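 Seeds mixed with potting soil were planted on about one inch of soil in cups, then sprayed with test compound in aqueous acetone at about 0.0156 to 0.500 kg per hectare. Plants were grown under greenhouse conditions and rated visually 4–5 weeks after treatment on a 0–9 scale against a control.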

[4] = system: Velvetleaf, Abutilon theophrasti; assay: Postemergence herbicidal evaluation, ABUTH; assay type: in vivo, Medic.
Method in brief: as §1

[5] = system: SAGPY Arrowhead (Pygmaea); assay: Postemergence weed control, flooded paddy (Table IV); assay type: in vivo, Sagittaria pygmaea; set-up: scale not given here
Method in brief: (§3)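 Weeds 3–5 cm tall and rice at 1.5–2.5 leaf stage in flooded containers, water held 1.5–3 cm above soil. Compounds in 50/50 aqueous/acetone applied into flood water at about 0.0313–0.500 kg/ha. Herbicidal effect rated visually three to four weeks after treatment.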

MOOVA Monochoria [6] = assay: Preemergence weed control, flooded paddy (Table III); assay type: in vivo, Monochoria vaginalis; set-up: scale not given here
Method: (§4) Preemergence herbicidal activity under flooded paddy conditions is determined as follows: plant seeds or propagating organs are planted in the top 0.5 cm of silt loam soil in 32 oz. plastic containers with a diameter of 10.5 cm and no drainage holes. Water is added to these containers and maintained at 1.5 to 3 cm above the soil surface for the duration of the experiment. The test compounds are applied as aqueous/acetone mixtures 50/50 v/v pipetted directly into the flood water to give the equivalent of about 0.0313 to 0.500 kg/ha of active ingredient. The treated containers are placed on greenhouse benches and cared for in accordance with conventional greenhouse procedures. Three to four weeks after treatment, the test is terminated and each container is examined and herbicidal effect rated according to the rating system provided in Example 185. The compounds evaluated are reported by compound number given in Example 185.

Soybean, Glycine max = assay: Postemergence herbicidal evaluation, GLXMA; assay type: in vivo, (L.) Merr.; details: 0.2500 kg/ha
Method: In the tests, seedling plants are grown in jiffy flats for about two weeks. The test compounds are dispersed in 50/50 acetone/water mixtures containing 0.5% TWEEN®20, a polyoxyethylene sorbitan monolaurate surfactant of Atlas Chemical Industries, in sufficient quantities to provide the equivalent of about 0.0157 kg to 0.500 kg per hectare of active compound when applied to the plants through a spray nozzle operating at 40 psi for a predetermined time. After spraying, the plants are placed on greenhouse benches and are cared for in accordance with conventional greenhouse procedures. From four to five weeks after treatment, the seedling plants are examined and rated according to the rating system set forth below. Where more than one test is involved for a given compound, the data are averaged.
(§5) Results of herbicide evaluation are expressed on a rating scale (0-9). The scale is based upon a visual observation of plant stand, vigor, malformation, size, chlorosis and overall plant appearance as compared with a control.

[7] = system: Ragweed, Common, Ambrosia artemisifolia; assay: Preemergence herbicidal evaluation, AMBEL; assay type: in vivo, L.; details: 0.2500 kg/ha
Method in brief: as §2

[8] = system: Soybean, Williams, Glycine max; assay: Postemergence herbicidal evaluation, GLXMAW; assay type: in vivo, (L.) Merr. cv Williams; details: 0.0630 kg/ha
Method in brief: as §1

[9] = system: Lambsquarters, Common, Chenopodium album; assay: Postemergence herbicidal evaluation, CHEAL; assay type: in vivo, L.
Method in brief: as §1

[10] = system: Morningglory, Ivyleaf, Ipomoea hederacea; assay: Preemergence herbicidal evaluation, IPOHE; assay type: in vivo, (L.) Jacq.; details: 0.2500 kg/ha
Text: as §5
(§6) The preemergence herbicidal activity of the test compounds of the present invention is exemplified by the following tests in which the seeds of a variety of monocotyledonous and dicotyledonous plants are separately mixed with potting soil and planted on top of approximately one inch of soil in separate pint cups. After planting, the cups are sprayed with the selected aqueous acetone solution containing test compound in sufficient quantity to provide the equivalent of about 0.0156 to 0.500 kg per hectare of test compound per cup. The treated cups are then placed on greenhouse benches, watered and cared for in accordance with conventional greenhouse procedures. From four to five weeks after treatment, the tests are terminated and each cup is examined and rated according to the rating system provided in Example 185.
(§7) The compounds evaluated are reported by compound number given in Example 185.

[11] = system: Velvetleaf, Abutilon theophrasti; assay: Preemergence herbicidal evaluation, ABUTH; assay type: in vivo, Medic.; details: 0.2500 kg/ha
Method in brief: as §2

[12] = system: Barnyardgrass, Echinochloa crus-galli; assay: Preemergence herbicidal evaluation, ECHCG; assay type: in vivo, (L.) Beau; details: 0.2500 kg/ha
Method in brief: as §2

[13] = system: Morningglory Spp., Ipomoea Spp.; assay: Preemergence herbicidal evaluation, IPOSS; assay type: in vivo; details: 0.2500 kg/ha
Text: as §5, §6, §7

CYPIR Rice Flatsedge = assay: Postemergence weed control, flooded paddy (Table IV); assay type: in vivo, Cyperus iria; set-up: scale not given here
Method in brief: as §3

MOOVA Monochoria [14] = assay: as above; assay type: in vivo, Monochoria vaginalis; set-up: scale not given here
Method in brief: as §3

Galium, Galium aparine [15] = assay: Postemergence herbicidal evaluation, GALAP; assay type: in vivo
Method in brief: as §1

[16] = system: Barnyardgrass, Echinochloa crus-galli; assay: Postemergence herbicidal evaluation, ECHCG; assay type: in vivo, (L.) Beau
Method in brief: as §1

[17] = system: Lambsquarters, Common, Chenopodium album; assay: Preemergence herbicidal evaluation, CHEAL; assay type: in vivo, L.; details: 0.2500 kg/ha
Method in brief: as §2

[18] = system: Morningglory, Ivyleaf, Ipomoea hederacea; assay: Postemergence herbicidal evaluation, IPOHE; assay type: in vivo, (L.) Jacq.; details: 0.0630 kg/ha
Method in brief: as §1

CYPSE Flatsedge [19] = assay: Preemergence weed control, flooded paddy (Table III); assay type: in vivo, Cyperus serotinus; set-up: scale not given here
Method: as §4

CYPSE Flatsedge [20] = assay: Postemergence weed control, flooded paddy (Table IV); assay type: in vivo, Cyperus serotinus; set-up: scale not given here
Method in brief: as §3

[21] = system: Foxtail, Green, Setaria viridis; assay: Preemergence herbicidal evaluation, SETVI; assay type: in vivo, (L.) Beau; details: 0.2500 kg/ha
Method in brief: as §2

In the case of `COC(=O)C(C)Oc1ccc(C)cc1-c1nsc2ccc(-n3c(=O)cc(C(F)(F)F)n(C)c3=O)cc12` (centres unmarked) [Compound 3], the “herbicide rating (0-9)” value ([1]; 0.0630 kg/ha) is reported as 9.0, the “herbicide rating (0-9)” value ([1]; 0.2500 kg/ha) is reported as 9.0 and the “herbicide rating (0-9)” value ([2]; 0.0630 kg/ha) is reported as 7.2. The “herbicide rating (0-9)” value ([2]; 0.2500 kg/ha) was 9.0, the “herbicide rating (0-9)” value (Galium, Galium aparine [3]) was 7.6 and the “herbicide rating (0-9)” value ([4]; 0.0630 kg/ha) was 9.0. For the same compound, the “herbicide rating (0-9)” value ([4]; 0.2500 kg/ha) was 9.0, the herbicidal effect rating ([5]; 0.1250 kg/ha) was 0.0 and the herbicidal effect rating ([5]; 0.2500 kg/ha) was 0.0. The herbicidal effect rating ([5]; 0.5000 kg/ha) was 0.0, the herbicidal effect rating (MOOVA Monochoria [6]; 0.0313 kg/ha) was 9.0 and the herbicidal effect rating (MOOVA Monochoria [6]; 0.0625 kg/ha) was 9.0. The herbicidal effect rating (MOOVA Monochoria [6]; 0.1250 kg/ha) was 9.0, the herbicidal effect rating (MOOVA Monochoria [6]; 0.2500 kg/ha) was 9.0 and the herbicidal effect rating (MOOVA Monochoria [6]; 0.5000 kg/ha) was 9.0. The “herbicide rating (0-9)” value (Soybean, Glycine max) was 7.5, the “herbicide rating (0-9)” value [7] was 9.0 and the “herbicide rating (0-9)” value [8] was 7.0. The “herbicide rating (0-9)” value ([9]; 0.0630 kg/ha) was 9.0, the “herbicide rating (0-9)” value ([9]; 0.2500 kg/ha) was 9.0 and the “herbicide rating (0-9)” value [10] was 9.0. For the same compound, the “herbicide rating (0-9)” value [11] was 9.0, the “herbicide rating (0-9)” value [12] was 8.3 and the “herbicide rating (0-9)” value [13] was 9.0. For the same compound, the herbicidal effect rating (CYPIR Rice Flatsedge; 0.1250 kg/ha) was 9.0, the herbicidal effect rating (CYPIR Rice Flatsedge; 0.2500 kg/ha) was 9.0 and the herbicidal effect rating (CYPIR Rice Flatsedge; 0.5000 kg/ha) was 9.0. The herbicidal effect rating (MOOVA Monochoria [14]; 0.1250 kg/ha) was 9.0, the herbicidal effect rating (MOOVA Monochoria [14]; 0.2500 kg/ha) was 9.0 and the herbicidal effect rating (MOOVA Monochoria [14]; 0.5000 kg/ha) was 9.0. For the same compound, the “herbicide rating (0-9)” value (Galium, Galium aparine [15]; 0.0630 kg/ha) was 9.0, the “herbicide rating (0-9)” value ([16]; 0.0630 kg/ha) was 9.0 and the “herbicide rating (0-9)” value ([16]; 0.2500 kg/ha) was 9.0. For the same compound, the “herbicide rating (0-9)” value [17] was 9.0, the “herbicide rating (0-9)” value [18] was 9.0 and the herbicidal effect rating (CYPSE Flatsedge [19]; 0.0313 kg/ha) was 0.0. It also gave a herbicidal effect rating (CYPSE Flatsedge [19]; 0.0625 kg/ha) of 0.0, a herbicidal effect rating (CYPSE Flatsedge [19]; 0.1250 kg/ha) of 0.0 and a herbicidal effect rating (CYPSE Flatsedge [19]; 0.2500 kg/ha) of 2.0. It also gave a herbicidal effect rating (CYPSE Flatsedge [19]; 0.5000 kg/ha) of 4.0, a herbicidal effect rating (CYPSE Flatsedge [20]; 0.1250 kg/ha) of 0.0 and a herbicidal effect rating (CYPSE Flatsedge [20]; 0.2500 kg/ha) of 0.0. The herbicidal effect rating (CYPSE Flatsedge [20]; 0.5000 kg/ha) was 0.0 and the “herbicide rating (0-9)” value [21] was 9.0.
`COC(=O)COc1ccc(C)cc1-c1nsc2ccc(-n3c(=O)cc(C(F)(F)F)n(C)c3=O)cc12` [Compound 2, Methyl {{2-{5-[3,6-dihydro-3-methyl-4-(trifluoromethyl) -2,6-dioxo-1(2H)-pyrimidinyl]-1,2-benzisothiazol-3-yl]-p-tolyl}oxy}acetate] was tested, and the “herbicide rating (0-9)” value ([1]; 0.0630 kg/ha) was 9.0, the “herbicide rating (0-9)” value ([1]; 0.2500 kg/ha) was 9.0 and the “herbicide rating (0-9)” value ([2]; 0.0630 kg/ha) was 7.8. The “herbicide rating (0-9)” value ([2]; 0.2500 kg/ha) was 9.0, the “herbicide rating (0-9)” value (Galium, Galium aparine [3]) was 9.0 and the “herbicide rating (0-9)” value ([4]; 0.0630 kg/ha) was 9.0. The “herbicide rating (0-9)” value ([4]; 0.2500 kg/ha) was 9.0, the herbicidal effect rating ([5]; 0.1250 kg/ha) was 0.0 and the herbicidal effect rating ([5]; 0.2500 kg/ha) was 2.0. It also gave a herbicidal effect rating ([5]; 0.5000 kg/ha) of 4.0, a herbicidal effect rating (MOOVA Monochoria [6]; 0.0313 kg/ha) of 7.0 and a herbicidal effect rating (MOOVA Monochoria [6]; 0.0625 kg/ha) of 9.0. The herbicidal effect rating (MOOVA Monochoria [6]; 0.1250 kg/ha) was 9.0, the herbicidal effect rating (MOOVA Monochoria [6]; 0.2500 kg/ha) was 9.0 and the herbicidal effect rating (MOOVA Monochoria [6]; 0.5000 kg/ha) was 9.0. For the same compound, the “herbicide rating (0-9)” value (Soybean, Glycine max) was 9.0, the “herbicide rating (0-9)” value [7] was 9.0 and the “herbicide rating (0-9)” value [8] was 8.8. The “herbicide rating (0-9)” value ([9]; 0.0630 kg/ha) was 9.0, the “herbicide rating (0-9)” value ([9]; 0.2500 kg/ha) was 9.0 and the “herbicide rating (0-9)” value [10] was 9.0. For the same compound, the “herbicide rating (0-9)” value [11] was 9.0, the “herbicide rating (0-9)” value [12] was 8.3 and the “herbicide rating (0-9)” value [13] was 9.0. It also gave a herbicidal effect rating (CYPIR Rice Flatsedge; 0.1250 kg/ha) of 9.0, a herbicidal effect rating (CYPIR Rice Flatsedge; 0.2500 kg/ha) of 9.0 and a herbicidal effect rating (CYPIR Rice Flatsedge; 0.5000 kg/ha) of 9.0. The herbicidal effect rating (MOOVA Monochoria [14]; 0.1250 kg/ha) was 9.0, the herbicidal effect rating (MOOVA Monochoria [14]; 0.2500 kg/ha) was 9.0 and the herbicidal effect rating (MOOVA Monochoria [14]; 0.5000 kg/ha) was 9.0. The “herbicide rating (0-9)” value (Galium, Galium aparine [15]; 0.0630 kg/ha) was 9.0, the “herbicide rating (0-9)” value (Galium, Galium aparine [15]; 0.2500 kg/ha) was 9.0 and the “herbicide rating (0-9)” value ([16]; 0.0630 kg/ha) was 9.0. For the same compound, the “herbicide rating (0-9)” value ([16]; 0.2500 kg/ha) was 9.0, the “herbicide rating (0-9)” value [17] was 9.0 and the “herbicide rating (0-9)” value [18] was 9.0. It also gave a herbicidal effect rating (CYPSE Flatsedge [19]; 0.0313 kg/ha) of 0.0, a herbicidal effect rating (CYPSE Flatsedge [19]; 0.0625 kg/ha) of 0.0 and a herbicidal effect rating (CYPSE Flatsedge [19]; 0.1250 kg/ha) of 0.0. For the same compound, the herbicidal effect rating (CYPSE Flatsedge [19]; 0.2500 kg/ha) was 0.0, the herbicidal effect rating (CYPSE Flatsedge [19]; 0.5000 kg/ha) was 0.0 and the herbicidal effect rating (CYPSE Flatsedge [20]; 0.1250 kg/ha) was 0.0. The herbicidal effect rating (CYPSE Flatsedge [20]; 0.2500 kg/ha) was 0.0, the herbicidal effect rating (CYPSE Flatsedge [20]; 0.5000 kg/ha) was 0.0 and the “herbicide rating (0-9)” value [21] was 9.0.
